The values below are quoted from earlier work in paper PMC7199283 (Antiviral research, 2020).

For this series, the system named is HBV. The settings on record: ref Hu et al., 2013.

In the case of `CC(C)c1ccc(O)c(=O)c(O)c1` [β-thujaplicinol], the “accumulation of RNA:DNA heteroduplexes within HBV capsids” value was “dose-dependent accumulation of RNA:DNA heteroduplexes”.
